Measurements as given in patent US5919785A, “Inhibitors of farnesyl-protein transferase” (Merck & Co., Inc., priority 1997, dated 1999).
Structures can show the parent of a compound that is named as a salt. Where two headings read alike, the source gives them in different places.

Target: T1, human FPTase (Homo sapiens, UniProt P49354+P49356)
T1 construct: made in house
Test: In vitro inhibition of ras farnesyl transferase (human FPTase assay)
Format: biochemical
Experimental: Assays of farnesyl-protein transferase. […] Reactions were initiated with FPTase and stopped with 1 ml of 1.0 M HCL in ethanol. Precipitates were collected onto filter-mats using a TomTec Mach HI cell harvester, washed with 100% ethanol, dried and counted in an LKB β-plate counter. […] Purified compounds were dissolved in 100% dimethyl sulfoxide (DMSO) and were diluted 20-fold into the assay. Percentage inhibition is measured by the amount of incorporation of radioactivity in the presence of the test compound when compared to the amount of incorporation in the absence of the test compound. […] Human FPTase activity was assayed as described above with the exception that 0.1% (w/v) polyethylene glycol 20,000, 10 μM ZnCl2 and 100 nM Ras-CVIM were added to the reaction mixture. Reactions were performed for 30 min., stopped with 100 μl of 30% (v/v) trichloroacetic acid (TCA) in ethanol and processed as described above for the bovine enzyme.

Compound	IC50 [µM]	IC50 (human FPTase, [3H]-FPP, 100 nM Ras-CVIM, 30 min, read-out: IC50, inhibitory activity against human FPTase) [µM]
N#Cc1ccc(Cn2cncc2CN2CC(=O)N(c3ccccc3)CC2=O)cc1 [Example 4, 4-[1-(4-cyanobenzyl)-5-imidazolylmethyl]-1-phenylpiperazine-2,5-dione hydrochloride]	≤ 50	
N#Cc1ccc(Cn2cncc2CN2CC(=O)N(Cc3ccccc3)CC2=O)cc1 [Example 5, 4-benzyl-1-[1-(4-cyanobenzyl)-5-imidazolylmethyl]-piperazine-2,5-dione hydrochloride]		≤ 50
